Results: PubChem BioAssay (NCI)
“And” between values parts separate entries of the source, which are not always exact repeats. Equal values may be shown once.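 48-hour exposure; five concentrations; linearly interpolated endpoints. GI50 = concentration required for 50% inhibition of growth. TGI: total growth inhibition.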 Where a SMILES comes first, the peptide text is derived from it. The star is where a group is joined. Boc = CC(C)(C)OC(=O)*

Experiments:
Test in all cases: inhibition of tumour cell growth, NCI panel, 48 h
A549 NSCLC = system: A549 NSCLC
DU-145 prostate = system: DU-145 prostate
HL-60(TB) leukemia = system: HL-60(TB) leukemia
HS 578T breast = system: HS 578T breast
IGROV1 ovarian = system: IGROV1 ovarian
MDA-MB-231 breast = system: MDA-MB-231 breast
MOLT-4 leukemia = system: MOLT-4 leukemia
CCRF-CEM leukemia = system: CCRF-CEM leukemia
NCI-H460 lung = system: NCI-H460 lung
RXF 393 renal = system: RXF 393 renal

SMILES | TGI (A549 NSCLC) | TGI (DU-145 prostate) | TGI (HL-60(TB) leukemia) | TGI (HS 578T breast) | TGI (IGROV1 ovarian) | TGI (MDA-MB-231 breast) | TGI (MOLT-4 leukemia) | TGI (CCRF-CEM leukemia) | TGI (NCI-H460 lung) | TGI (RXF 393 renal) | GI50 (NCI-H460 lung) | GI50 (A549 NSCLC) | GI50 (MOLT-4 leukemia) | GI50 (HL-60(TB) leukemia) | GI50 (DU-145 prostate)
CC(=O)Oc1ccc2c3c1O[C@H]1[C@H](O)CC[C@@]4(O)[C@@H](C2)N(C)CC[C@]314 | > 100 µM | > 100 µM | > 100 µM | > 100 µM | > 100 µM | > 100 µM | > 100 µM |  |  |  |  |  |  |  | 
CNC1(C(=O)O)CC1 | > 100 µM | > 100 µM | > 100 µM | > 100 µM | > 100 µM | > 100 µM | > 100 µM | > 100 µM | > 100 µM | > 100 µM |  |  |  |  | 
CC1(C)N=C(C2CCCN2C(=O)OCc2ccccc2)OC1=O (stereo not given) | > 100 µM | > 100 µM | > 100 µM | > 100 µM | > 100 µM | > 100 µM | > 100 µM | > 100 µM | > 100 µM | 85.1 µM |  |  |  |  | 
CC1C(C#N)(C#N)C(C#N)=C(N)C1(Cl)[N+](=O)[O-] (stereo not given) | 54.6 µM | 30.6 µM | 5.16 µM | 46.1 µM | 22.5 µM | 26.9 µM | 11.6 µM | 5.12 µM |  | 17.4 µM |  |  |  |  | 
COC(=O)[C@H](Cc1ccc(O)cc1)NC(=O)[C@H](Cc1ccc(O)cc1)NC(=O)OC(C)(C)C (Boc-Tyr-Tyr-OMe) | > 100 µM | > 100 µM |  | > 100 µM | > 100 µM | > 100 µM |  |  | > 100 µM | > 100 µM |  |  |  |  | 
Cc1cnc2[nH]c(-c3ccc4ccccc4c3)cc(=O)c2c1 | > 100 µM | 27.9 µM |  | > 100 µM | > 100 µM |  | > 100 µM |  | > 100 µM |  | 0.394 µM |  |  |  | 
COc1cc(C2c3cc4c(cc3[C@@H](NCCN3CCOCC3)C3COC(=O)[C@H]23)OCO4)cc(OC)c1O (stereo not given in full) | 2.64 µM and 4.28 µM |  |  |  | 22.4 µM and > 17.5 µM |  | 4.48 µM and 4.87 µM | > 75 µM | 1.26 µM and 2.4 µM | 9.33 µM and 10.4 µM | 0.051 µM and 0.174 µM | 0.314 µM and 0.761 µM | 0.137 µM and 0.402 µM |  | 
O=C(OCCNC(=O)N1CC1)OCCNC(=O)N1CC1 | > 10 µM | > 10 µM | > 10 µM | > 10 µM | > 10 µM | > 10 µM | > 10 µM | > 10 µM | > 10 µM | > 10 µM |  |  |  |  | 
COc1cccc(/C=C2\S/C(=N/Nc3nc(-c4ccc([N+](=O)[O-])cc4)cs3)NC2=O)c1O | 39.6 µM | 68.1 µM | > 100 µM | 74.1 µM | 27.1 µM | 41.7 µM | > 100 µM | 63.3 µM | 42 µM |  |  |  |  |  | 
CSc1nc2c(c(=O)[nH]1)N=C(c1ccccc1)CC(c1ccccc1)N2 (stereo not given) | > 100 µM | > 100 µM | 59.2 µM |  | > 100 µM | 45.5 µM | 59.6 µM | > 100 µM | 27.2 µM | 79.6 µM |  |  |  |  | 
c1ccc(CSC2(SCc3ccccc3)CCCCC2)cc1 | > 10 µM | > 10 µM | > 10 µM | > 10 µM | > 10 µM | > 10 µM | > 10 µM | > 10 µM | > 10 µM | > 10 µM |  |  |  |  | 
Cc1n(Cc2ccccc2)nc2sc(N)n[n+]12 | > 100 µM | > 100 µM |  | > 100 µM | > 100 µM |  | > 100 µM | > 100 µM |  | > 100 µM |  |  |  |  | 
COc1ccc(/C=C2\C[C@H]3[C@@H]4CCC5=CC(=O)CC[C@]5(C)[C@H]4CC[C@]3(C)C2=O)cc1OC | > 100 µM | > 100 µM | 6.91 µM | > 100 µM | > 100 µM |  | 44.6 µM | 47.2 µM | > 100 µM | > 100 µM |  |  |  |  | 
COc1ccc2nc3cc(Cl)ccc3c(SCC(=O)Nc3ccccc3-c3ccccc3NC(=O)CSc3c4ccc(Cl)cc4nc4ccc(OC)cc34)c2c1 | > 100 µM |  |  |  | > 100 µM |  | > 100 µM | > 100 µM | > 100 µM | > 100 µM |  |  |  |  | 
CCN1CN(c2ccccc2)C2(CCN(CC(CC3OCCO3)c3ccc(F)cc3)CC2)C1=O (stereo not given) | > 100 µM |  | 49.3 µM | > 64.1 µM | > 53.8 µM | > 44.2 µM | > 67 µM | > 43.1 µM | 33 µM | 44.8 µM |  |  |  |  | 
CCOC(=O)c1cccc(NC(=O)CI)c1 | 3.41 µM | 3.34 µM |  |  | 1.02 µM | 2.91 µM | 0.221 µM |  | 3.77 µM | 2.74 µM |  |  |  |  | 
O=c1oc2c(Cl)cc(Cl)cc2cc1C1=CSC2=NCCN12 | > 100 µM | > 100 µM | > 100 µM |  | > 100 µM | > 100 µM | > 100 µM | > 100 µM | > 100 µM | > 100 µM |  |  |  |  | 
Cc1ccc(C(=O)N/N=C(\N=Nc2ccc(C(=O)O)cc2)c2ccc(N(CCC#N)CCC#N)cc2C)cc1 | > 100 µM | > 100 µM | > 100 µM |  |  | > 100 µM | > 100 µM | > 100 µM | > 100 µM | > 100 µM |  |  |  |  | 
COc1cc(OC)c2[nH]c3c(O)c(-c4c(C)cc5c([nH]c6c(OC)cc(OC)cc65)c4O)c(C)cc3c2c1 | 13.3 µM | 15 µM | 10.5 µM | 20.2 µM | 13.7 µM | 19.1 µM | 21.9 µM |  | 16.6 µM | 16.8 µM |  |  | 8.59 µM | 2.82 µM | 
CCCCCCCCC/C=C1\CCC(CN(C)C)C1=O (stereo not given) | 18 µM |  | 5.31 µM |  | 6.53 µM |  | 8.49 µM | 4.82 µM | 12.5 µM |  |  |  |  |  | 
CCOc1cc2c(c(OCC)c1O)CC[C@@H]1[C@@H]2CC[C@]2(C)[C@@H](O)CC[C@@H]12 | > 100 µM | 37.4 µM | 1.86 µM | 95.1 µM | > 100 µM | 24.3 µM | > 100 µM | > 100 µM |  | 17.1 µM |  |  |  |  | 3.32 µM
Cc1ccc2c(/C=C/c3ccc(N(C)C)cc3)ccc(C(C)C)cc1-2 | > 100 µM | > 100 µM | 88.3 µM | > 100 µM | > 100 µM | > 100 µM | > 100 µM | > 100 µM |  | > 100 µM |  |  |  |  | 
CCOc1ccc(N/C(=C(/C(Cl)=C(/Cl)NC(C)(C)C)[N+](=O)[O-])n2nnc3ccccc32)cc1 | > 100 µM |  |  | 32.6 µM |  | 37.6 µM | > 100 µM | > 100 µM | > 100 µM | 41.8 µM |  |  |  |  | 
